These results are taken from US9567347B2, “Use of small molecule inhibitors targeting the interaction between RAC GTPase and p67(phox)” (CHILDREN'S HOSPITAL MEDICAL CENTER, priority 2012, dated 2017).

In data set [1] the test system is PMA-induced ROS production in human neutrophils. As to the kind of experiment: luminol chemiluminescence assay of PMA induced ROS production. Type of data set: cell-based. How it is done:
Human neutrophils (2×10^5) were stimulated in HBSS supplemented with 0.1% BSA, 1 mM Ca2+, 1 mM Mg2+ and with fMLP (10 μM), PMA (300 nM) or glucose oxidase (200 mU/ml) for 30 min in the presence of 10 μM [8-amino-5-chloro-7-phenylpyrido[3,4-d]pyridazine-1,4(2H,3H)dione] (L012).
(§1) Chemiluminescence was measured using GloMax®-96 Microplate Luminometer (Promega) (Tarpey et al., (2004) Am J Physiol Regul Integr Comp Physiol 286: R431-R444, hereby incorporated by reference in its entirety). The generation of […] by the xanthine/xanthine oxidase was performed in PBS supplemented with xanthine oxidase (0.004 U), HRP (0.005 U·mL^−1) and L012, following the protocol described in Wind et al., (2010) Br J Pharmacol. 161, 885-898, hereby incorporated by reference in its entirety. The reaction was started by the addition of xanthine (0.5 mM).

Data set [2] has as its system fMLP-activated primary murine neutrophils. Put plainly: Nitroblue tetrazolium (NBT) assay. Format: cell-based, mouse. The conditions noted are these: 10 μM, FIG. 3C. The procedure: Primary neutrophils from mouse bone marrow were subjected to fMLP stimulation in the presence or absence of various chemicals for 5 min. Cells were stained for NBT activity as previously described in the incorporated materials of Filippi et al. (2004) to reveal relative ROS production.
To complement the DCFDA based FACS analysis and the luminol chemiluminescence method, nitroblue tetrazolium (NBT) assays were performed in fMLP-activated primary murine neutrophils (FIG. 3C).
The NBT assay was performed in primary murine neutrophils to measure ROS neutrophil production. […] Each compound was used at 10 μM.

In data set [3] the test system is undifferentiated HL-60 cells. Put plainly: apoptosis analysis by FACS (Annexin V / 7-AAD). The conditions noted are these: 20 or 100 μM. Format: cell-based, human. The procedure: Cells (5×10^5) were harvested and processed for Annexin V/7AAD staining according to manufacturer's protocol (Becton Dickinson). Flow cytometry data were acquired on a FACS Canto bench-top flow cytometer (Becton Dickinson) and the cell cycle distributions were determined by […] using Flo-Jo software (Bosco et al (2010) Blood 115, 3320-3328, hereby incorporated by reference in its entirety). For ROS production assay, primary murine neutrophils or dHL60 cells were incubated with compound for 2 hours prior to addition of H2-DCFDA according to manufacturer's instructions (Molecular Probes). Cells were then stimulated with 10 μM fMLP (Sigma), 1 mM CaCl2, and 1.5 mM MgCl2 for 15 minutes prior to wash and FACS analysis for mean fluorescence intensity. Non-fMLP stimulated control values were subtracted from all samples before normalization to fMLP-stimulated, vehicle control treated sample in order to display percent ROS inhibition.
In order to determine potency and cytotoxicity of Phox-I1 and Phox-I2, the levels of apoptosis were assessed in undifferentiated HL-60 cells treated with 20 or 100 μM Phox-I1, Phox-I2, or NSC23766 by FACS analysis for Annexin V (FIG. 4A).

The subject of a further data set is Pak. As to the kind of experiment: immunoblot of phosphorylated Pak. Particulars: 18 hr treatment. Type of data set: cell-based, human. How it is done: Whole-cell lysates were prepared by cell extraction using lysis buffer containing 20 mM Tris-HCl (pH 7.6), 100 mM NaCl, 10 mM MgCl2, 1% Triton X-100, 0.2% sodium deoxycholate, 1 mM phenylmethylsulfonyl fluoride, 10 μg/mL of leupeptin, 1 μg/mL of aprotinin, and 1 mM dithiothreitol for 30 min. Equal amounts of protein, as determined by Bradford assay, were resolved by SDS-PAGE. Specific proteins were detected by standard 9 immunoblotting procedures using the following primary antibodies: (Cell Signaling, 1:500 dilution) phospho-PAK1 (Ser144)/PAK2 (Ser141), (Sigma-Aldrich 1:500) β-Actin.
To analyze the biochemical specificity of these lead inhibitors on the effector pathways of active Rac1, undifferentiated HL-60 cells were treated with Phox-I1, Phox-I2, or NSC23766 for 18 hr. Immunoblot of the cell lysates was performed to probe the activity of Pak, a Rac effector other than p67^phox (FIG. 4B).

For data set [4], the system named is primary murine neutrophils. Put plainly: F-actin immunofluorescence, polarization upon fMLP stimulation. Type of data set: cell-based, mouse. The conditions noted are these: 10 μM; untreated control about 80%. The procedure: Cells were pretreated with compound for 40 minutes prior to wash, and resuspended in HBSS with compound. Cells were allowed to adhere to fibronectin (Sigma Aldrich) coated glass coverslips (15 min) and then stimulated with 100 nM fMLP (3 min). Coverslips were then fixed with 3.7% paraformaldehyde (Sigma Aldrich) and then staining for […] was performed with rhodamine phalloidin per the manufacturer's instructions (Molecular Probes). Another method of addressing Rac-signaling specificity in neutrophils is by monitoring their ability to polarize actin to the leading edge upon fMLP stimulation. Neither Phox-I1, Phox-I2, nor an analog 13 (all at 10 μM), were able to block the Rac-mediated dynamic process of F-actin polarization to the leading edge of primary murine neutrophils as observed by F-actin immunofluorescence imaging (FIG. 4C, left panel). F-actin polarization was evident in about 80% of each treatment group of cells as in the control, untreated cells (FIG. 4C, right panel).

In a further data set the target is T1, xanthine oxidase (Bos taurus, UniProt P80457).
T1 construct: purchased Sigma Aldrich
As to the kind of experiment: xanthine/xanthine oxidase assay. Format: biochemical. Particulars: 10 μM, 30 min at room temperature. How it is done: as §1
To test if the inhibitors are specific for the NOX2 enzyme, a xanthine/xanthine oxidase assay was performed. Specifically, vehicle, NAC (10 mM), […] or Phox-I2 (10 μM) was added to the assay, and incubated for 30 min at room temperature. The results were calculated by taking superoxide production in the absence of inhibitors as 100 and value obtained with NAC, Pghox-I1 or Phox-I2 was expressed as relative %. The data shown in FIG. 6 represent those from three separate experiments.

T1 sequence (P80457 2-1332 limits assumed): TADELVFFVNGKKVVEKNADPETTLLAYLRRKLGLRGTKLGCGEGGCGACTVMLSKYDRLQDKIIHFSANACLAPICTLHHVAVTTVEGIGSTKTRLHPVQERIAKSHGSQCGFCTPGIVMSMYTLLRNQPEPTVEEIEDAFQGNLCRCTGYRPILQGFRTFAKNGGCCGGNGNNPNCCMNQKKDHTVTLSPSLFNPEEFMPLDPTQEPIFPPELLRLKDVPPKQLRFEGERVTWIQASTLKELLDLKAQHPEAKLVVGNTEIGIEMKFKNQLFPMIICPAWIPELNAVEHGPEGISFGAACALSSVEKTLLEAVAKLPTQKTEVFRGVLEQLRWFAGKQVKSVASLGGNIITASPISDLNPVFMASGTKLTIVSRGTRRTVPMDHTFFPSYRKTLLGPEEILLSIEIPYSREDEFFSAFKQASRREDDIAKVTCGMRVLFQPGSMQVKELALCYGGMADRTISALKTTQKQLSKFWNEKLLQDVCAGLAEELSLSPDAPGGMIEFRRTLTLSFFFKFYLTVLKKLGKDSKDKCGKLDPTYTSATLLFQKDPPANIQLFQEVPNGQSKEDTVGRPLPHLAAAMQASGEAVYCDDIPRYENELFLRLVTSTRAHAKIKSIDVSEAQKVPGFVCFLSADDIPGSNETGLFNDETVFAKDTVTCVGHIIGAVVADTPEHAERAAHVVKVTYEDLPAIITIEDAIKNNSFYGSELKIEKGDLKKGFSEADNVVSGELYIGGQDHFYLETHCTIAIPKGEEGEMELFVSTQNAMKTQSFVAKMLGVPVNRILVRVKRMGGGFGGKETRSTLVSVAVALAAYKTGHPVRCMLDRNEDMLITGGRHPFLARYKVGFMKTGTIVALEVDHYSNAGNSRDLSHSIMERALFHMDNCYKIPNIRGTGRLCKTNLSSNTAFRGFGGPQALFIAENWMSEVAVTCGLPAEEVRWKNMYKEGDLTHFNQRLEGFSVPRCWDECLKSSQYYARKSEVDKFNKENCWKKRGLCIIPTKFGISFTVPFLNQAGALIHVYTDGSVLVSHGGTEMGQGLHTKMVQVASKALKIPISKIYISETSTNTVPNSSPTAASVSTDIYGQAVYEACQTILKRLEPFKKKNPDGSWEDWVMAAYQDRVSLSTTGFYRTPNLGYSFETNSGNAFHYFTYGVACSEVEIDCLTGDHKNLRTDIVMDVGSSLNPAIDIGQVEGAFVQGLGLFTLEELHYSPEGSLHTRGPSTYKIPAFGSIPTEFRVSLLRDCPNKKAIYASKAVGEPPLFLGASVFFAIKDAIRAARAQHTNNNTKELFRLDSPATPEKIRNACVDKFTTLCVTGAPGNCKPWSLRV

Take `COc1ccc2c(c1)C1C=C(c3ccccc3)NN1C(c1cccc([N+](=O)[O-])c1)O2` (centres unmarked) [Phox-I1]: the “effect on PMA-induced ROS production” value in data set [1] is recorded as “did not affect”. Also, the “superoxide production (NBT)” value in data set [2] was “significant blockade of superoxide production”. Besides, the “cell apoptosis (Annexin V)” value in data set [3] is “no detectable effect on cell apoptosis”. Further, the “phosphorylated Pak levels” value in the data set with Pak is recorded as “not”. Moreover, the “cells with F-actin polarization” value in data set [4] is “about 80%”. Moreover, the “xanthine oxidase-mediated ROS production” value on xanthine oxidase is listed as “does not affect”.
Regarding `O=[N+]([O-])c1cccc(C2Nc3ccc([N+](=O)[O-])cc3C3C=CCC32)c1` (centres unmarked) [Phox-I2], the “superoxide production (NBT)” value in data set [2] is listed as “heightened”. The “cell apoptosis (Annexin V)” value in data set [3] is “no detectable effect on cell apoptosis”. Also, the “phosphorylated Pak levels” value in the data set with Pak was “not”. The “cells with F-actin polarization” value in data set [4] is reported as “about 80%”. Further, the “xanthine oxidase-mediated ROS production” value at xanthine oxidase is “does not affect”.
